By pIC50 is commonly meant −log10 of the IC50, conventionally taken in molar units. By pEC50 is commonly meant −log10 of the EC50, conventionally taken in molar units.

Consider twelve molecules from US10323043B2, “Derivatives of macrocyclic N-aryl-tricyclopyrimidine-2-amine polyethers as inhibitors of FTL3 and JAK” (PIERRE FABRE MEDICAMENT, priority 2014, dated 2019).

pEC50, pIC50: −log10 of the molar value.

One assay has as its target T1, JAK2 (Homo sapiens, UniProt O60674).
T1 construct: purchased Life Technologies PV4210
The assay can be described thus: LanthaScreen TR-FRET binding test, JAK2. The note with it: recombinant JAK2 15 nM, kinase tracer 236 150 nM, 25° C., 1 hour; read-out: Inhibition (IC50) of JAK2 enzyme. How it is done:
(§1) FLT3 (#PV3182), JAK2 (#PV4210) and JAK3 (#PV3855) recombinant enzymes were purchased from Life Technologies. FLT3-ITD (#0778-0000-1) and FLT3^D835Y (#14-610) proteins were purchased from ProQinase and Merck Millipore, respectively. All the tests were carried out in 384-well plates. The principle of these binding tests is based on the LanthaScreen® TR-FRET methodology from Life Technologies.
The reaction mixture (15 μL total volume) contains the following compounds: 15 nM JAK2 or JAK3, 150 nM kinase tracer 236 (Life Technologies, #PV5592) for JAK2 or 3 nM for JAK3 and 6 nM LanthaScreen® anti-GST antibody coupled to a europium chelate (Life Technologies, #PV5594) for both enzymes.
(§2) The compounds are evaluated at 8 different concentrations prepared by making dilutions from a starting 10 mM stock solution in dimethylsulfoxide (DMSO) (Sigma, #D8418). The final DMSO concentration in the test is 1%. The reaction is carried out at 25° C. for 1 hour and detected on the EnVision® reader (Perkin Elmer) according to the recommendations of the supplier, Life Technologies.
(§3) The results are presented (Table 1) as the concentration values of the compound at which 50% of the kinase activity is inhibited, IC50 (μM), generated using the PRISM software (GraphPad).
In general terms: In TR-FRET formats the signal depends on donor and acceptor labels being close together.

The next assay addresses T2, FLT3 (Homo sapiens, UniProt P36888).
T2 construct: purchased Life Technologies PV3182
T2 sequence (P36888 564-993 limits assumed): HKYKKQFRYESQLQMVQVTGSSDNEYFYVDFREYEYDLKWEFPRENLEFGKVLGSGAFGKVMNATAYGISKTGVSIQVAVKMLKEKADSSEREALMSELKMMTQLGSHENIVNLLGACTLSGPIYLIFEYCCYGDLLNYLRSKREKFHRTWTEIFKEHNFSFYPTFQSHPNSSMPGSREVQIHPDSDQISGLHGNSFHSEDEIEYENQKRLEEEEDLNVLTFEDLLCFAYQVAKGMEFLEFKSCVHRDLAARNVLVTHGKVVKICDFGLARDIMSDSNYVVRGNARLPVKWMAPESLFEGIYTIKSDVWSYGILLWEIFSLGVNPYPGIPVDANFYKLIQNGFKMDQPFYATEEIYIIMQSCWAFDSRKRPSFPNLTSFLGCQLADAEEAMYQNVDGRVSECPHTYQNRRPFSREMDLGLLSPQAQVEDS
As to the kind of experiment: LanthaScreen TR-FRET binding test, FLT3. To be noted: recombinant FLT3 15 nM, kinase tracer 236 3 nM, 25° C., 1 hour; read-out: Inhibition (IC50) of FLT3 enzyme. How it is done:
as §1
(§4) The reaction mixture (15 μL total volume) contains the following compounds: 15 nM FLT3, FLT3-ITD or FLT3^D835Y, 3 nM kinase tracer 236 (Life Technologies, #PV5592) and 6 nM LanthaScreen® anti-GST antibody coupled to a europium chelate (Life Technologies, #PV5594) for FLT3-ITD and FLT3^D835Y or 6 nM LanthaScreen® anti-His antibody coupled to a europium chelate (Life Technologies, #PV5596) for FLT3.
as §2, §3

The next assay deals with MV4-11 cell line. The assay can be described thus: Antiproliferative activity (ATPLite cell viability), MV4-11. It is filed as cell-based. To be noted: Homo sapiens, MV4-11 (acute myeloid leukemia, FLT3-ITD), 72 h incubation, read-out: Cytotoxicity (EC50) on MV411 cell line. The method, then: The characteristics of the cell lines used are as follows (Table 2):
MV4-11 and MOLM-13 cell lines are cultured in the culture medium specified in Table 2 above and according to the supplier's recommendations. The tests are carried out in 96-well plates. The cells are divided in two at D0. At D1, they are seeded and treated with the compounds at various concentrations and incubated for 72 h at 37° C. and 5% CO2. The dilution of the compounds from stock solutions in DMSO (Sigma, #D8418) was made semi-logarithmically for a final concentration in the culture medium of 0.1%. At day 4, cell viability is evaluated by assaying the ATP released by the living cells using the ATPLite® kit (Perkin Elmer, #6016947). The EC50 values (concentration of the compound necessary to obtain 50% of the maximum effect) are calculated using curve-fitting software.
On the technique in general: In ATP-based viability assays light output follows the ATP content of the culture.

A further assay addresses T3, FLT3-ITD (Homo sapiens, UniProt P36888).
T3 construct: FLT3-ITD (#0778-0000-1) and FLT3^D835Y (#14-610) proteins were purchased from ProQinase and Merck Millipore, respectively; fused on or other part: GST tag, inferred from detection with the anti-GST europium antibody
T3 sequence (P36888 1-993): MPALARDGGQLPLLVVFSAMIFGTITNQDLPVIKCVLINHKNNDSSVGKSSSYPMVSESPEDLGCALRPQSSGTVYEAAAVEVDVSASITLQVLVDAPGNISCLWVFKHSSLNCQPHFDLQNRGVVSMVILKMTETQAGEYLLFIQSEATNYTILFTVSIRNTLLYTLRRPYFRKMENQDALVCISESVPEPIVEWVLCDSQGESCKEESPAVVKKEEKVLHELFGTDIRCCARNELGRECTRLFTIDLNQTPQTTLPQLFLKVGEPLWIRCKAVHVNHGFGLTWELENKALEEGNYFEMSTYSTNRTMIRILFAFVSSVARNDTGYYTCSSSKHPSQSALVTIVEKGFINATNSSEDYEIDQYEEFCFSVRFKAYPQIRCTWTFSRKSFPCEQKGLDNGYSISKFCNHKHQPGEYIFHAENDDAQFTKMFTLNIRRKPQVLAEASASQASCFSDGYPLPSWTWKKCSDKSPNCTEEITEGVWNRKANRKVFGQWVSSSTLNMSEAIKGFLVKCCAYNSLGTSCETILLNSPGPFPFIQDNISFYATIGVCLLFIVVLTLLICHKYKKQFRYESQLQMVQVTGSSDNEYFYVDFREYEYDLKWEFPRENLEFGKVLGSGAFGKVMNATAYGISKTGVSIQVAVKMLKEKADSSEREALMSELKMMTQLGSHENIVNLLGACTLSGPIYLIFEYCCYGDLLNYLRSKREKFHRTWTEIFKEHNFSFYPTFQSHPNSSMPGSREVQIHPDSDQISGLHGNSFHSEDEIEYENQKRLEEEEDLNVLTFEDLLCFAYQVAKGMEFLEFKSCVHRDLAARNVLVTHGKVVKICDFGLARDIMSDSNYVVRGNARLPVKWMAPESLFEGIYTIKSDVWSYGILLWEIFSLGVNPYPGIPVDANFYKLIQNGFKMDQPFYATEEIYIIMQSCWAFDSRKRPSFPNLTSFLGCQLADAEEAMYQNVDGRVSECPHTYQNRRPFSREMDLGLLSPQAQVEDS
The assay can be described thus: LanthaScreen TR-FRET binding test, FLT3-ITD. The note with it: FLT3-ITD 15 nM, kinase tracer 236 3 nM, 25° C., 1 hour; read-out: Inhibition (IC50) of FLT3-ITD enzyme. How it is done: as §1, §4, §2, §3

T1 sequence (O60674 whole entry): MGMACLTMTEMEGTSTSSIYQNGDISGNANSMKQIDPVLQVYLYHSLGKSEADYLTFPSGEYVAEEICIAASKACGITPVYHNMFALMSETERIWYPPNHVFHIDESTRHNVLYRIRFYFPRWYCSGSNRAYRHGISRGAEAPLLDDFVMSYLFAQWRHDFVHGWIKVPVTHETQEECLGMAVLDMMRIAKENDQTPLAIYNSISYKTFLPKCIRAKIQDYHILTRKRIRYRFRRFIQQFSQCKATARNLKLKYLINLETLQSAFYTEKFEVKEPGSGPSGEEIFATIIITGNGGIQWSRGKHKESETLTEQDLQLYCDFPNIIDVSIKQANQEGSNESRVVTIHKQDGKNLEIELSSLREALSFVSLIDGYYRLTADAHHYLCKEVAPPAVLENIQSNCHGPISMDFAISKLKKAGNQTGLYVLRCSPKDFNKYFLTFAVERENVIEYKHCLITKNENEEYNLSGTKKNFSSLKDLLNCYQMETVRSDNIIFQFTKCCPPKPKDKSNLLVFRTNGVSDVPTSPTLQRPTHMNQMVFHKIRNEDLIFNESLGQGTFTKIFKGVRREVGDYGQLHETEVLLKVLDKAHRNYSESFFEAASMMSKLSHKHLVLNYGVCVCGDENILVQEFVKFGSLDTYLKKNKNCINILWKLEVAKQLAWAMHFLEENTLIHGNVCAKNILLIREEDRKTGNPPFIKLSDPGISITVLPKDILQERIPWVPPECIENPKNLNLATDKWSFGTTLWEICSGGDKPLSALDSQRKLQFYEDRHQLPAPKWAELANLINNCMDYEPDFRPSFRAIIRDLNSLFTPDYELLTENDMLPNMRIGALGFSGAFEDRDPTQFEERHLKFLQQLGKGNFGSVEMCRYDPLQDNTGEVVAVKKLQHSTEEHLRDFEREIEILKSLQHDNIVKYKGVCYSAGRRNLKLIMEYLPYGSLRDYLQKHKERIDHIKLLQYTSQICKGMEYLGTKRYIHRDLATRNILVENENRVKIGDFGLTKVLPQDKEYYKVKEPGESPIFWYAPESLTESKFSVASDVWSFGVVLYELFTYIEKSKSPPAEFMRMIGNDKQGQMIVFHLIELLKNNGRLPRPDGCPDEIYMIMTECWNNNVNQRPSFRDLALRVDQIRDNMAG

With `CN1CCN(c2ccc3cc2OCCOCCOc2ccc4c(c2)-c2nc(ncc2CC4)N3)CC1` [Compound 3], the pIC50 at JAK2 is 7.76; at FLT3, 8.60; at FLT3-ITD, 9.85. Further, in the assay on MV4-11 cell line, the pEC50 was 8.55.

With `c1cc(N2CCNCC2)c2cc1Nc1ncc3c(n1)-c1cc(ccc1CC3)OCCOCCO2` [Compound 5], the results for the negative logarithm of the IC50 (pIC50) at JAK2, at FLT3 and at FLT3-ITD were 7.89, 8.36 and 8.89, respectively. In the assay on MV4-11 cell line, the negative logarithm of the EC50 (pEC50) was 8.14.

Regarding `c1cc(N2CCC(N3CCOCC3)C2)c2cc1Nc1ncc3c(n1)-c1cc(ccc1CC3)OCCOCCO2` (stereo not drawn) [Compound 7], the values for the pIC50 at JAK2, at FLT3 and at FLT3-ITD were 7.40, 7.74 and 8.19, respectively. For the same molecule, the pEC50 in the assay with MV4-11 cell line was 7.40.

For the molecule `c1cc(N2CCC(N3CCCCC3)CC2)c2cc1Nc1ncc3c(n1)-c1cc(ccc1CC3)OCCOCCO2` [Compound 10], the negative-log IC50 (pIC50) at JAK2 is 8.11; at FLT3 it was 8.22; at FLT3-ITD, 8.89. Further, the pEC50 in the assay on MV4-11 cell line was 8.19.

With `c1cc(OCCN2CCCC2)c2cc1Nc1ncc3c(n1)-c1cc(ccc1CC3)OCCOCCO2` [Compound 14], the pIC50 was 7.47 on JAK2, 8.15 at FLT3 and 8.70 at FLT3-ITD. Also, in the assay with MV4-11 cell line, the negative logarithm of the EC50 (pEC50) is 8.04.

As for `OC1CCN(c2ccc3cc2OCCOCCOc2ccc4c(c2)-c2nc(ncc2CC4)N3)CC1` [Compound 19], the negative-log IC50 (pIC50) at JAK2 is 7.70; at FLT3, 8.44; on FLT3-ITD it was 8.62. For the same molecule, the pEC50 in the assay on MV4-11 cell line was 7.92.

In the case of `CN1CC=C(c2ccc3cc2OCCOCCOc2ccc4c(c2)-c2nc(ncc2CC4)N3)CC1` [Compound 23], the pIC50 is 6.89 on JAK2, 8.35 on FLT3 and 8.77 at FLT3-ITD. Besides, the pEC50 in the assay on MV4-11 cell line was 7.70.

On to `c1cc(N2CC3CNCC3C2)c2cc1Nc1ncc3c(n1)-c1cc(ccc1CC3)OCCOCCO2` (stereo not drawn) [Compound 29], for which the pIC50 is 7.94 on JAK2, 8.43 at FLT3 and 9.10 on FLT3-ITD. Further, the pEC50 in the assay with MV4-11 cell line was 8.12.

On to `CN(C)C1CCN(c2ccc3cc2OCCOCCOc2ccc4c(c2)-c2nc(ncc2CC4)N3)C1` (stereo not drawn) [Compound 30], for which the pIC50 at JAK2 is 8.00; at FLT3, 8.49; at FLT3-ITD, 9.00. Besides, the pEC50 in the assay on MV4-11 cell line was 7.92.

As for `CN1CCN(c2ccc3cc2OCCOCCOc2ccc4c(c2)-c2nc(ncc2CC4)N3)CC1(C)C` [Compound 40], the pIC50 on JAK2 is 8.14; at FLT3 it was 8.72; on FLT3-ITD, 9.29. In addition, the negative logarithm of the EC50 (pEC50) in the assay on MV4-11 cell line is 7.68.

On to `c1cc(N2CC3CCC(C2)N3)c2cc1Nc1ncc3c(n1)-c1cc(ccc1CC3)OCCOCCO2` [Compound 42], for which the results for the pIC50 at JAK2, at FLT3 and on FLT3-ITD were 8.17, 8.49 and 8.96, respectively. For the same molecule, the negative logarithm of the EC50 (pEC50) with MV4-11 cell line is 8.52.

As for `c1cc(N2C[C@H]3C[C@@H]2CN3)c2cc1Nc1ncc3c(n1)-c1cc(ccc1CC3)OCCOCCO2` [Compound 44], the pIC50 is 7.47 on JAK2, 8.28 at FLT3 and 8.82 at FLT3-ITD. Also, in the assay with MV4-11 cell line, the negative-log EC50 (pEC50) is 8.00.
